Data from publication PMC10721329, “Quisinostat is a brain-penetrant radiosensitizer in glioblastoma” (JCI Insight, 2023).
Values joined by “and” are separate entries in the source; they are usually repeats but may differ in a detail not shown here. Equal entries are not always repeated. Where two headings read alike, the source gives them in different places.

Columns and labels:
[1] = Total and unbound QST in tumor and contralateral brain at survival end point, orthotopic GB126 PDX; type: in vivo; settings: for UNBOUND [QST], Brain / UNBOUND [QST], Plasma / UNBOUND [QST], Tumor: individual mice; for concentration at 3 h: athymic nude, mouse
Protocol: All mice included in the survival study were processed for end-point PK and PD analyses once moribund. Plasma, tumor, and contralateral brain tissues were harvested 3 hours after dosing with 10 mg/kg QST, allowing for direct comparison of long-term treatment with the PK-PD data collected from acute (1-week) treatment with QST or combination therapy (Figure 8A). […] There were no significant differences in total or unbound drug concentrations in tumor or brain tissue between the monotherapy or combination therapy cohorts (Figure 8, E and F). Immunoblot analysis of dissected tumor samples confirmed that QST induced substantial histone H3 hyperacetylation in brain tumors, compared with untreated animals, consistent with an in vivo on-target effect (Figure 9, A and B).
QST concentrations in specimens were measured using reverse-phase LC on the AB SCIEX QTRAP6500+ LC-MS/MS system by operating electrospray in the positive ion mode. For liquid chromatographic separation, gradient elution was performed using a Phenomenex Kinetex F5 100 Å column (100 × 2.1 mm, 2.6 μm). The initial composition of the mobile phase was 70% phase A (0.1% formic acid in water) and 30% phase B (0.1% formic acid in 1:1 acetonitrile/methanol) with a 0.35 mL/min flow rate. Gradient elution was achieved as follows: mobile phase (B) was maintained at 30% from 0 to 0.3 minutes, increased to 95% from 0.3 to 0.8 minutes, maintained at 95% from 0.8 to 2.5 minutes, and decreased to 30% from 2.5 to 2.8 minutes. The total run time was 3.5 minutes. The internal standard used in this study was D8-infigratinib. The retention times for QST and D8-infigratinib were 1.6 and 1.8 minutes, respectively. Mass-to-charge ratio transitions were as follows: 395.20 → 144.00 (QST) and 568.08 → 321.00 (D8-infigratinib). LC-MS/MS analysis was performed using an Analyst 1.7 Chromatographic Data System. See Supplemental Methods for detailed PK experiments.
Gy on MWF for a total of 6 Gy in the first week of treatment. Treatment groups included vehicle (50% PEG-3000), QST (10 mg/kg) alone, 6 Gy whole-brain IR treatment with vehicle, and 6 Gy whole-brain IR treatment with 10 mg/kg QST. QST was administered to mice through intraperitoneal injections two hours prior to whole-brain radiation treatment. Upon completion of the radiation regimen, IR-treated mice subsequently received QST or vehicle alone for the rest of the experiment. Tumor growth and treatment response was monitored by IVIS bioluminescence […]
once per week. […]
Tissue from the hemisphere contralateral to the tumor was also collected as a normal brain/nontumor reference sample. For PK analyses, the mice were anesthetized with isoflurane, and at least 300 μL of blood was drawn from the right ventricle of the heart. The blood was collected in tubes containing 10 μL of 0.1 M KOH in EDTA to prevent blood coagulation. Blood samples were immediately centrifuged at 3000 rpm for 10 minutes at 4 °C to allow separation of plasma. After collection of the blood, the tumor was dissected out of the brain and flash -frozen.
Both plasma and erythrocytes were flash-frozen for subsequent analysis. […]
vortex-mixed for 10 s and centrifuged at 12000 g at 4 °C for 10 min. A 100-µL aliquot of the supernatant was transferred to an autosampler vial, and 5 µL was injected into the LC-MS/MS system for analysis. Whenever necessary, appropriate dilutions were made to accommodate the analysis of small volume samples.
Brain and Brain Tumor Sample Preparation
Normal brain and brain tumor tissue homogenates were prepared by 1:4 (mass/volume) ratio with PBS. Samples were homogenized under 6.00 m/s speed for 40 seconds with 3 cycles by Bead Ruptor Elite homogenizer (Omni International). Plasma was used as a surrogate matrix for brain/tumor homogenate. Brain homogenate samples from in vivo studies were prepared as described for plasma samples. Analyte and IS were extracted by protein precipitation with methanol containing IS. After centrifugation at 12000 rpm for 10 minutes at 4 °C, 5 µL of […]

[2] = tested on: 7 patient-derived GSC lines and U87; assay: Dose-titration cell viability assay, whole panel; type: cell-based; settings: Homo sapiens; 7 GSC lines and U87; 3-5 days; read-out: cellular IC50 in all lines
Protocol: QST (JNJ-26481585) is a second-generation hydroxamic acid harboring remarkable selectivity toward class I HDACs, with a biochemical IC50 of 0.1 nM for HDAC1 ([13]). […] To determine the cytotoxic effects of QST, we performed a dose-titration cell viability assay in 7 patient-derived GSC lines (BT145, GB187, GB239, GB282, GB71, GB82, and GB126) and 1 long-term serum-grown human GBM cell line (U87). Because GBMs display a high degree of intratumoral heterogeneity, we used GSCs derived from both primary and recurrent GBMs that harbored distinct genetic mutations or aberrations, growth rates, MGMT promoter methylation status, and gene expression profiles (Supplemental Figure 1; supplemental material available online with this article; https://doi.org/10.1172/jci.insight.167081DS1). Cell lines were treated with various concentrations of QST (10–1000 nM), and cell viability was measured 3–5 days later (Figure 1, A and B). […]
GSCs were seeded in laminin-coated tissue culture–treated 96-well plates (clear bottom, white plate; Corning) at a density of 1000–5000 cells per well (cell line dependent) in GSC media. […] Following treatment with QST, cells were grown for 3 to 5 days (cell line dependent), and cell viability was measured and quantified. […]

With `Cn1cc(CNCC2CCN(c3ncc(C(=O)NO)cn3)CC2)c2ccccc21` [QST, quisinostat] the “UNBOUND [QST], Brain” value ([1]; Combination (QST + IR) cohort) was 3.62 nM and 1.48 nM and 2.18 nM, the “UNBOUND [QST], Plasma” value ([1]; Combination (QST + IR) cohort) was 158.39 nM and 19.58 nM and 43.86 nM and the “UNBOUND [QST], Tumor” value ([1]; Combination (QST + IR) cohort) was 66.7 nM and 35.51 nM and 128.5 nM and 21.89 nM and 23.43 nM. The “UNBOUND [QST], Brain” value ([1]; QST cohort) was 1.049 nM and 4.404 nM and 6.584 nM and 1.529 nM, the “UNBOUND [QST], Plasma” value ([1]; QST cohort) was 35.734 nM and 100.413 nM and 74.395 nM and 209.24 nM and the “UNBOUND [QST], Tumor” value ([1]; QST cohort) was 93.34 nM and 77.02 nM and 33.36 nM and 81.88 nM. It also gave a concentration at 3 h ([1]; brain (contralateral to tumor), intraperitoneal, 10 mg/kg, Combo cohort, mean, read-out: Total QST, Brain, Mean) of 48.5 nM, a concentration at 3 h ([1]; brain (contralateral to tumor), intraperitoneal, 10 mg/kg, Combo cohort, mean, read-out: Unbound QST, Brain, Mean) of 2.42 nM and a concentration at 3 h ([1]; brain (contralateral to tumor), intraperitoneal, 10 mg/kg, QST cohort, mean, read-out: Total QST, Brain, Mean) of 67.8 nM. For the same molecule, the concentration at 3 h ([1]; brain (contralateral to tumor), intraperitoneal, 10 mg/kg, QST cohort, mean, read-out: Unbound QST, Brain, Mean) was 3.39 nM, the concentration at 3 h ([1]; in vivo, orthotopic GB126, end point (moribund), 3 hours after 10 mg/kg, read-out: unbound QST in tumors, mean) was 71.4 nM and the concentration at 3 h ([1]; peritumoral (contralateral) brain tissue, intraperitoneal, 10 mg/kg, orthotopic GB126, end point (moribund), 3 hours after 10 mg/kg, read-out: unbound QST in peritumoral brain tissue, mean) was 3.4 nM. For the same molecule, the concentration at 3 h ([1]; plasma, intraperitoneal, 10 mg/kg, Combo cohort, mean, read-out: Total QST, Plasma, Mean) was 141 nM, the concentration at 3 h ([1]; plasma, intraperitoneal, 10 mg/kg, Combo cohort, mean, read-out: Unbound QST, Plasma, Mean) was 55.7 nM and the concentration at 3 h ([1]; plasma, intraperitoneal, 10 mg/kg, QST cohort, mean, read-out: Total QST, Plasma, Mean) was 265 nM. For the same molecule, the concentration at 3 h ([1]; plasma, intraperitoneal, 10 mg/kg, QST cohort, mean, read-out: Unbound QST, Plasma, Mean) was 105 nM, the concentration at 3 h ([1]; tumor, intraperitoneal, 10 mg/kg, Combo cohort, mean, read-out: Total QST, Tumor, Mean) was 1100 nM and the concentration at 3 h ([1]; tumor, intraperitoneal, 10 mg/kg, Combo cohort, mean, read-out: Unbound QST, Tumor, Mean) was 55.2 nM. For the same molecule, the concentration at 3 h ([1]; tumor, intraperitoneal, 10 mg/kg, QST cohort, mean, read-out: Total QST, Tumor, Mean) was 1430 nM, the concentration at 3 h ([1]; tumor, intraperitoneal, 10 mg/kg, QST cohort, mean, read-out: Unbound QST, Tumor, Mean) was 71.4 nM and the IC50 [2] was 0.05 to 0.1 µM.
